Like-named read-outs stand apart in the source and are kept apart here.
Experiments:
ASK1(h) = target: T1, ASK1(h) (Homo sapiens, UniProt Q99683); assay: biochemical; parameters: In vitro kinase panel profiling, per cent remaining kinase activity at 10 uM; details: atp_concentration=200, read-out: % of control remaining
T1 construct: gene MAP3K5
T1 sequence (Q99683 1-1374): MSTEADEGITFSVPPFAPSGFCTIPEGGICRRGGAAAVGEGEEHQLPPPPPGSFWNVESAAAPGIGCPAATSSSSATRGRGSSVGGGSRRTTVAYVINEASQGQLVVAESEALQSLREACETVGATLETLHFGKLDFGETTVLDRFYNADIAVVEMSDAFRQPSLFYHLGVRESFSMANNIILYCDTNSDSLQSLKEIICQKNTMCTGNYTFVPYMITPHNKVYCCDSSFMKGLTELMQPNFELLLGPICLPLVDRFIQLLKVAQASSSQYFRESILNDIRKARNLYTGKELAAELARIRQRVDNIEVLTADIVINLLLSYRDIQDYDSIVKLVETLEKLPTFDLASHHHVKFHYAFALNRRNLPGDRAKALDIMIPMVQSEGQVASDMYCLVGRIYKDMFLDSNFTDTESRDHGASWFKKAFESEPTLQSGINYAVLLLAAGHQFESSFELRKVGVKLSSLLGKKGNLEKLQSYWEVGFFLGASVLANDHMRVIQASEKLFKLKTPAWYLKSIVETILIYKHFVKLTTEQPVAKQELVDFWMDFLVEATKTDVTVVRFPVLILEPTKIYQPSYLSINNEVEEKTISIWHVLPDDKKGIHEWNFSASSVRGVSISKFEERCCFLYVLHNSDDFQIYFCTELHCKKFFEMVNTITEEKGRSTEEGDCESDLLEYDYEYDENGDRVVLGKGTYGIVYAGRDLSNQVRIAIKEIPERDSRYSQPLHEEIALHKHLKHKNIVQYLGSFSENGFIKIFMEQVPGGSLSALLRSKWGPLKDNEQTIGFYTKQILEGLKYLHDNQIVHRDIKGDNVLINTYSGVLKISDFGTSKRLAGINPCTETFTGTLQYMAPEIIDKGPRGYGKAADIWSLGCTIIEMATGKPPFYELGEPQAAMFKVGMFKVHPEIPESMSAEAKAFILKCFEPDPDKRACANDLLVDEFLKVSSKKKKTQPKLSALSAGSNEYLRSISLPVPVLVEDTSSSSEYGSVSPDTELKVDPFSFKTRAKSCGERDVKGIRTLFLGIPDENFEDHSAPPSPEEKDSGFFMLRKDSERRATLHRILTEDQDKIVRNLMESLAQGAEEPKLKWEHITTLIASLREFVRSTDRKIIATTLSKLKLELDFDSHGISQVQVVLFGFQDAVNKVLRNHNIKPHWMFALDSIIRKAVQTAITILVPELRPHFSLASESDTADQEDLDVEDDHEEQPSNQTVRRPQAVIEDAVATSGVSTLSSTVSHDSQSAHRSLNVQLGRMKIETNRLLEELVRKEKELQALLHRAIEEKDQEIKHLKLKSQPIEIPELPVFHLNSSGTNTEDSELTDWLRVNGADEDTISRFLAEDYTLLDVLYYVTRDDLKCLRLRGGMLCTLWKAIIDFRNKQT
Source text: (§1) We derisk potential for off-target activity by profiling the compound in a CEREP panel, a standard secondary pharmacology assessment, as well as a kinase panel to derisk a potential hinge-binding motif in our leads, and a PARP panel to derisk activity against human […]. Reassuringly, the compounds are selective, with the only off-targets being moderate human CHRM2 and KOR receptors activity associated with ASAP-0011198.

DRAK1(h) = target: T2, DRAK1(h) (Homo sapiens, UniProt Q9UEE5); assay: biochemical; parameters: In vitro kinase panel profiling, per cent remaining kinase activity at 10 uM; details: atp_concentration=10, read-out: % of control remaining
T2 construct: gene STK17A
T2 sequence (Q9UEE5 1-414): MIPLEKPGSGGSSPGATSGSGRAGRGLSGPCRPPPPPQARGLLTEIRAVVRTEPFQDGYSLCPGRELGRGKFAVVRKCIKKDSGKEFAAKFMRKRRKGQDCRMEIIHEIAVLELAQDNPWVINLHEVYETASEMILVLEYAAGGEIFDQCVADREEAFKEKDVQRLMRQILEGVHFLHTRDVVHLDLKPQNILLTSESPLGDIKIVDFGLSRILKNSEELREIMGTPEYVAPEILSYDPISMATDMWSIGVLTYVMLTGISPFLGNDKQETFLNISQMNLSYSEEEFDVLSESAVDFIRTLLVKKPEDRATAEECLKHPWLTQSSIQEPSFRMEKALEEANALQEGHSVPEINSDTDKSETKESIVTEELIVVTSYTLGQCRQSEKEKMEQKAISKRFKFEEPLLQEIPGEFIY
Source text: as §1

MAPKAP-K2(h) = target: T3, MAPKAP-K2(h) (Homo sapiens, UniProt P49137); assay: biochemical; parameters: In vitro kinase panel profiling, per cent remaining kinase activity at 10 uM; details: atp_concentration=90, read-out: % of control remaining
T3 construct: gene MAPKAPK2
T3 sequence (P49137 whole entry): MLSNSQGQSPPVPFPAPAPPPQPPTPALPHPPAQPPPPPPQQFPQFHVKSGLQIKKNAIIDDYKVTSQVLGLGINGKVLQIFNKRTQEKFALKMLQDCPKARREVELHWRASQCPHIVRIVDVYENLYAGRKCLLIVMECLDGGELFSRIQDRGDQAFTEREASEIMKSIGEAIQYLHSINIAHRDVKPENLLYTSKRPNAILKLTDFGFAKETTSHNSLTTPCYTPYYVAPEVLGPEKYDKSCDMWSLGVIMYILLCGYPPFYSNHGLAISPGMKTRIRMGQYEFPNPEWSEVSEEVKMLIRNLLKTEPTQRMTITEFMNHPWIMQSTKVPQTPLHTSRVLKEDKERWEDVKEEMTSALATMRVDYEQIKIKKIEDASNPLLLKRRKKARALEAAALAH
Source text: as §1

PKCθ(h) = target: T4, PKCθ(h) (Homo sapiens, UniProt Q04759); assay: biochemical; parameters: In vitro kinase panel profiling, per cent remaining kinase activity at 10 uM; details: atp_concentration=15, read-out: % of control remaining
T4 construct: gene PRKCQ
T4 sequence (Q04759 whole entry): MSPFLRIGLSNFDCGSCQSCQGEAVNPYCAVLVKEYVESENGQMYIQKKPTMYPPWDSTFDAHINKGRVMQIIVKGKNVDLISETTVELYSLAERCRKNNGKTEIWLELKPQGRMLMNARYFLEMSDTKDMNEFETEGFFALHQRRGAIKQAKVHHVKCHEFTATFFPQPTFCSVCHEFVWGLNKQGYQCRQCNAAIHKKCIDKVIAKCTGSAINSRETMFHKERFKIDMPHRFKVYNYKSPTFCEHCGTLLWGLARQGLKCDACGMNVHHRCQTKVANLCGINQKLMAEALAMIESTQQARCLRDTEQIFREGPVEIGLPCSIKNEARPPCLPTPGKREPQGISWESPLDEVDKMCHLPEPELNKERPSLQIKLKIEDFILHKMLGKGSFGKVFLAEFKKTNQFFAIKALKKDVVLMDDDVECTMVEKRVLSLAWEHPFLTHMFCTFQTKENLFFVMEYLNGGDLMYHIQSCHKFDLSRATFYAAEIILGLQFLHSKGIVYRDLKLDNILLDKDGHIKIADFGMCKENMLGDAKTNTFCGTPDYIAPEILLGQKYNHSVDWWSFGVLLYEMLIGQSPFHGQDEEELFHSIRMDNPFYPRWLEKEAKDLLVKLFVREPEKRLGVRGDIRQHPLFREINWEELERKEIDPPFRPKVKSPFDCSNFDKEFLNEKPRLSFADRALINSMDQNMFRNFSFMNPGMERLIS
Source text: as §1

alpha1A (h) = target: T5, alpha1A (h) (Homo sapiens, UniProt P35348); assay: In vitro CEREP profiling, alpha1A (h) (antagonist radioligand); type: binding; details: test compound 10 uM; for inhibition at 10 µM: read-out: perc_inhibition (% inhibition of the binding of a ligand specific for each target)
T5 construct: purchased Eurofins Cerep (SafetyScreen44), recognised from the panel format
T5 sequence (P35348 1-466): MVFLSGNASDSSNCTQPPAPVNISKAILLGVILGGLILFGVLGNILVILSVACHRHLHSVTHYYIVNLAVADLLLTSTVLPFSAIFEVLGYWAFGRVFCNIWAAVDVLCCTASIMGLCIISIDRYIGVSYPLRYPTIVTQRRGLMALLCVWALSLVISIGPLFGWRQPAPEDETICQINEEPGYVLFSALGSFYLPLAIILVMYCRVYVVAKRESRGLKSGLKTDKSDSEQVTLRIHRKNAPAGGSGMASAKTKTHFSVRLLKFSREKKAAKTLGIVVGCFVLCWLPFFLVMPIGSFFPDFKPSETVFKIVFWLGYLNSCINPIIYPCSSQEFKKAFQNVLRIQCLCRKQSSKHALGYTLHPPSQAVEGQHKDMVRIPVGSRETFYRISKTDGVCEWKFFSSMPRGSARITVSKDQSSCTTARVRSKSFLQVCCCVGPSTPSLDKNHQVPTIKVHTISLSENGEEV
Source text: Supplement media-1.zip/Safety_Panel_Profile.csv, table | column: perc_inhibition

CC(C)C(Nc1ncnc2[nH]ccc12)c1ccc2c(c1)S(=O)(=O)CCC2 (centres unmarked) [ASAP-0008327] showed a remaining activity at 10 µM (ASK1(h); batch_name=ASAP-0008327-001) of 108%, a remaining activity at 10 µM (DRAK1(h); batch_name=ASAP-0008327-001) of 96% and a remaining activity at 10 µM (MAPKAP-K2(h); batch_name=ASAP-0008327-001) of 105%. For the same compound, the remaining activity at 10 µM (PKCθ(h); batch_name=ASAP-0008327-001) was 101%.
COc1ccc([C@@H](Cc2nnn[nH]2)NC(=O)c2ncnc3[nH]ccc23)cc1 [ASAP-0008340] was tested, and the remaining activity at 10 µM (ASK1(h); batch_name=ASAP-0008340-001) was 101%, the remaining activity at 10 µM (DRAK1(h); batch_name=ASAP-0008340-001) was 111% and the remaining activity at 10 µM (MAPKAP-K2(h); batch_name=ASAP-0008340-001) was 92%. It also gave a remaining activity at 10 µM (PKCθ(h); batch_name=ASAP-0008340-001) of 90%.
CC(C)[C@@H](Nc1ncnc2[nH]c(-c3cnn(C)c3C#N)cc12)c1ccc2c(n1)OCCO2 [ASAP-0008418] was tested, and the remaining activity at 10 µM (DRAK1(h); batch_name=ASAP-0008418-001) was 101% and the remaining activity at 10 µM (PKCθ(h); batch_name=ASAP-0008418-001) was 93%.
CC(C)[C@H](Nc1ncnc2[nH]ccc12)c1ccc2c(c1)S(=O)(=O)CCC2 [ASAP-0008674] was tested, and the “perc_inhibition (% inhibition of the binding of a ligand specific for each target)” value (alpha1A (h)) was -2%, the remaining activity at 10 µM (ASK1(h); batch_name=ASAP-0008674-002) was 105% and the remaining activity at 10 µM (DRAK1(h); batch_name=ASAP-0008674-002) was 117%. The remaining activity at 10 µM (MAPKAP-K2(h); batch_name=ASAP-0008674-002) was 106% and the remaining activity at 10 µM (PKCθ(h); batch_name=ASAP-0008674-002) was 88%.
For CC(C)[C@H](Nc1ncnc2[nH]c(-c3cnn(C)c3C#N)cc12)c1ccc2c(n1)OCCO2 [ASAP-0010715], the “perc_inhibition (% inhibition of the binding of a ligand specific for each target)” value (alpha1A (h)) was 34%, the remaining activity at 10 µM (ASK1(h); batch_name=ASAP-0010715-002) was 106% and the remaining activity at 10 µM (DRAK1(h); batch_name=ASAP-0010715-002) was 105%. It also gave a remaining activity at 10 µM (MAPKAP-K2(h); batch_name=ASAP-0010715-002) of 115%.
For CC(C)[C@@H](Nc1ncnc2[nH]c(-c3cnn(C)c3C#N)cc12)c1ccc2c(n1)OCCO2 [ASAP-0010716], the “perc_inhibition (% inhibition of the binding of a ligand specific for each target)” value (alpha1A (h)) was 11%, the remaining activity at 10 µM (ASK1(h); batch_name=ASAP-0010716-002) was 108% and the remaining activity at 10 µM (DRAK1(h); batch_name=ASAP-0010716-002) was 108%. For the same compound, the remaining activity at 10 µM (MAPKAP-K2(h); batch_name=ASAP-0010716-002) was 114% and the remaining activity at 10 µM (PKCθ(h); batch_name=ASAP-0010716-002) was 111%.
CNCc1cc(-c2cc3c(N[C@@H](c4ccc5c(c4)S(=O)(=O)CCC5)C(C)C)ncnc3[nH]2)co1 [ASAP-0011176] was tested, and the “perc_inhibition (% inhibition of the binding of a ligand specific for each target)” value (alpha1A (h)) was 50%, the remaining activity at 10 µM (DRAK1(h); batch_name=ASAP-0011176-002) was 86% and the remaining activity at 10 µM (MAPKAP-K2(h); batch_name=ASAP-0011176-002) was 106%. For the same compound, the remaining activity at 10 µM (PKCθ(h); batch_name=ASAP-0011176-002) was 106%.
With CC(C)C(Nc1ncnc2[nH]c(C(=O)NC3CCN(C)C3)cc12)c1ccc2c(c1)S(=O)(=O)CCC2 (centres unmarked) [ASAP-0011198] the inhibition at 10 µM (alpha1A (h)) was 38%, the remaining activity at 10 µM (ASK1(h); batch_name=ASAP-0011198-002) was 105% and the remaining activity at 10 µM (DRAK1(h); batch_name=ASAP-0011198-002) was 105%. The remaining activity at 10 µM (MAPKAP-K2(h); batch_name=ASAP-0011198-002) was 108% and the remaining activity at 10 µM (PKCθ(h); batch_name=ASAP-0011198-002) was 102%.
For Cn1ncc(-c2cc3c(N[C@@H](c4ccc5c(n4)OCCO5)C(C)(C)C)ncnc3[nH]2)c1C#N [ASAP-0011221], the “perc_inhibition (% inhibition of the binding of a ligand specific for each target)” value (alpha1A (h)) was 54%, the remaining activity at 10 µM (ASK1(h); batch_name=ASAP-0011221-002) was 108% and the remaining activity at 10 µM (DRAK1(h); batch_name=ASAP-0011221-002) was 108%. The remaining activity at 10 µM (MAPKAP-K2(h); batch_name=ASAP-0011221-002) was 110% and the remaining activity at 10 µM (PKCθ(h); batch_name=ASAP-0011221-002) was 96%.
In the case of Cc1nn(C)cc1-c1cc2c(NC(c3ccc4c(c3)S(=O)(=O)CCC4)C(C)C)ncnc2[nH]1 (centres unmarked) [ASAP-0011446], the inhibition at 10 µM (alpha1A (h)) is reported as 8%, the remaining activity at 10 µM (ASK1(h); batch_name=ASAP-0011446-002) is reported as 103% and the remaining activity at 10 µM (DRAK1(h); batch_name=ASAP-0011446-002) is reported as 111%. For the same compound, the remaining activity at 10 µM (MAPKAP-K2(h); batch_name=ASAP-0011446-002) was 110% and the remaining activity at 10 µM (PKCθ(h); batch_name=ASAP-0011446-002) was 106%.
In the case of COc1ccc([C@H](Cc2nnn[nH]2)NC(=O)c2ncnc3[nH]ccc23)cc1 [ASAP-0015381], the “perc_inhibition (% inhibition of the binding of a ligand specific for each target)” value (alpha1A (h)) is reported as -7%, the remaining activity at 10 µM (ASK1(h); batch_name=ASAP-0015381-001) is reported as 103% and the remaining activity at 10 µM (MAPKAP-K2(h); batch_name=ASAP-0015381-001) is reported as 102%. It also gave a remaining activity at 10 µM (PKCθ(h); batch_name=ASAP-0015381-001) of 91%.

— publication doi:10.1101/2024.08.19.608619, “Discovery of potent SARS-CoV-2 nsp3 macrodomain inhibitors uncovers lack of translation to cellular antiviral response” (bioRxiv, 2024)
